# Results reported in patent US20240174618A1, “SUBSTITUTED (2-HETEROARYLOXYPHENYL)SULFONATES, SALTS THEREOF AND THEIR USE AS HERBICIDAL AGENTS” (Bayer Aktiengesellschaft, priority 2021, published 2024).
# Experiments:
# Type in all cases: in vivo
# [1] = system: Abutilon theophrasti (ABUTH); experiment: A. Herbicidal pre-emergence efficacy, ABUTH; details: scored visually after about 3 weeks vs untreated controls
# In short: (§1)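 Applied before emergence onto covering soil at rates of 1280 g/ha or less, using 600 L/ha spray water with 0.5% additive. Scoring: visual % efficacy after ~3 weeks, greenhouse.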
# [2] = system: Alopecurus myosuroides (ALOMY); experiment: A. Herbicidal pre-emergence efficacy, ALOMY; details: 1280 g/ha; scored visually after about 3 weeks vs untreated controls
# From the text: (§2) Seeds of mono- and dicotyledonous weed plants were placed in plastic pots in sandy loam soil (doubly sown with one species each of mono- or dicotyledonous weed plants per pot) and covered with soil. The compounds of the invention, formulated in the form of wettable powders (WP) or as emulsion concentrates (EC), were then applied onto the surface of the covering soil as aqueous suspension or emulsion with addition of 0.5% additive at a water application rate of 600 liters per hectare (converted). After the treatment, the pots were placed in a greenhouse and kept under good growth conditions for the test plants. After about 3 weeks, the efficacy of the preparations was scored visually in comparison with untreated controls as percentages.
# (§3) For example, • 100% efficacy=plants have died, • 0% efficacy=like untreated control plants.
# (§4) Tables A1a to A12c below show the effects of selected compounds of the general formula (I) according to table 1 on various harmful plants at an application rate corresponding to 1280 g/ha or less, which were obtained by the experimental procedure mentioned above.
# [3] = system: Digitaria sanguinalis (DIGSA); experiment: A. Herbicidal pre-emergence efficacy, DIGSA; details: scored visually after about 3 weeks vs untreated controls
# In short: as §1
# [4] = system: Echinochloa crus-galli (ECHCG); experiment: A. Herbicidal pre-emergence efficacy, ECHCG; details: 1280 g/ha; scored visually after about 3 weeks vs untreated controls
# In short: as §1
# Kochia scoparia (KCHSC) [5] = experiment: A. Herbicidal pre-emergence efficacy, KCHSC
# In short: as §1
# Lolium rigidum (LOLRI) = experiment: A. Herbicidal pre-emergence efficacy, LOLRI; details: dosage 1280 g/ha
# In short: as §1
# [6] = system: Matricaria inodora (MATIN); experiment: A. Herbicidal pre-emergence efficacy, MATIN; details: pre-emergence, dosage 1280 g/ha
# From the text: as §2, §3, §4
# Poa annua (POAAN) [7] = experiment: A. Herbicidal pre-emergence efficacy, POAAN
# In short: as §1
# Setaria viridis (SETVI) [8] = experiment: A. Herbicidal pre-emergence efficacy, SETVI
# In short: as §1
# Stellaria media (STEME) [9] = experiment: A. Herbicidal pre-emergence efficacy, STEME
# In short: as §1
# Veronica persica (VERPE) [10] = experiment: A. Herbicidal pre-emergence efficacy, VERPE
# In short: as §1
# [11] = system: Amaranthus retroflexus (AMARE); experiment: A. Herbicidal pre-emergence efficacy, AMARE
# In short: as §1
# [12] = system: Abutilon theophrasti (ABUTH); experiment: B. Herbicidal post-emergence efficacy, ABUTH; details: rated visually after about 3 weeks
# In short: (§5)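 Weeds grown in sandy loam in greenhouse and sprayed at the one-leaf stage, 2–3 weeks after sowing, with WP or EC formulations plus 0.5% additive at 600 L/ha water. Injury rated visually versus untreated controls after about 3 weeks (100% = dead, 0% = like control); rates up to 1280 g/ha.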
# [13] = system: Digitaria sanguinalis (DIGSA); experiment: B. Herbicidal post-emergence efficacy, DIGSA; details: 1280 g/ha, rated visually after about 3 weeks
# Description: (§6) Seeds of mono- and dicotyledonous weed plants were placed in plastic pots in sandy loam soil (doubly sown with in each case one species of mono- or dicotyledonous weed plants per pot), covered with soil and cultivated in a greenhouse under controlled growth conditions. 2 to 3 weeks after sowing, the test plants were treated at the one-leaf stage. The compounds of the invention, formulated in the form of wettable powders (WP) or as emulsion concentrates (EC), were applied onto the green parts of the plants as aqueous suspension or emulsion with addition of 0.5% additive at a water application rate of 600 liters per hectare (converted). After the test plants had been kept in the greenhouse under optimum growth conditions for about 3 weeks, the activity of the preparations was rated visually in comparison to untreated controls.
# (§7) For example, • 100% efficacy=plants have died, • 0% efficacy=like untreated control plants
# (§8) Tables B1a to B12c below show the effects of selected inventive compounds of the general formula (I) according to table 1 on various harmful plants at an application rate corresponding to 1280 g/ha or less, which were obtained by the experimental procedure mentioned above.
# [14] = system: Echinochloa crus-galli (ECHCG); experiment: B. Herbicidal post-emergence efficacy, ECHCG; details: 1280 g/ha, rated visually after about 3 weeks
# In short: as §5
# Kochia scoparia (KCHSC) [15] = experiment: B. Herbicidal post-emergence efficacy, KCHSC; details: for Post-emergence efficacy against KCHSC in %: rated visually after about 3 weeks
# In short: as §5
# Poa annua (POAAN) [16] = experiment: B. Herbicidal post-emergence efficacy, POAAN
# In short: as §5
# Setaria viridis (SETVI) [17] = experiment: B. Herbicidal post-emergence efficacy, SETVI; details: 1280 g/ha
# Description: as §6, §7, §8
# Stellaria media (STEME) [18] = experiment: B. Herbicidal post-emergence efficacy, STEME
# In short: as §5
# Veronica persica (VERPE) [19] = experiment: B. Herbicidal post-emergence efficacy, VERPE
# In short: as §5
# [20] = system: Amaranthus retroflexus (AMARE); experiment: B. Herbicidal post-emergence efficacy, AMARE
# In short: as §5
smiles,measurement,setting,value
O=S(=O)(CCC(F)(F)F)Oc1c(Br)cccc1Oc1ncc(Cl)cn1 [Example I-31],Pre-emergence efficacy against ABUTH,[1]; 320 g/ha,90%
same,Pre-emergence efficacy against ABUTH,[1]; 1280 g/ha,90%
same,Pre-emergence efficacy against ALOMY,[2],90%
same,Pre-emergence efficacy against DIGSA,[3]; 320 g/ha,90%
same,Pre-emergence efficacy against DIGSA,[3]; 1280 g/ha,100%
same,Pre-emergence efficacy against ECHCG,[4],100%
same,Pre-emergence efficacy against KCHSC,"Kochia scoparia (KCHSC) [5]; 80 g/ha, scored visually after about 3 weeks vs untreated controls",90%
same,Pre-emergence efficacy against KCHSC,"Kochia scoparia (KCHSC) [5]; pre-emergence, dosage 320 g/ha",100%
same,Pre-emergence efficacy against KCHSC,"Kochia scoparia (KCHSC) [5]; pre-emergence, dosage 1280 g/ha",100%
same,Pre-emergence efficacy against LOLRI,Lolium rigidum (LOLRI),100%
same,Pre-emergence efficacy against MATIN,[6],90%
same,Pre-emergence efficacy against POAAN,Poa annua (POAAN) [7]; dosage 80 g/ha,90%
same,Pre-emergence efficacy against POAAN,Poa annua (POAAN) [7]; dosage 320 g/ha,100%
same,Pre-emergence efficacy against POAAN,Poa annua (POAAN) [7]; dosage 1280 g/ha,100%
same,Pre-emergence efficacy against SETVI,Setaria viridis (SETVI) [8]; dosage 320 g/ha,100%
same,Pre-emergence efficacy against SETVI,Setaria viridis (SETVI) [8]; dosage 1280 g/ha,100%
same,Pre-emergence efficacy against STEME,Stellaria media (STEME) [9]; dosage 80 g/ha,90%
same,Pre-emergence efficacy against STEME,Stellaria media (STEME) [9]; dosage 320 g/ha,100%
same,Pre-emergence efficacy against STEME,Stellaria media (STEME) [9]; dosage 1280 g/ha,100%
same,Pre-emergence efficacy against VERPE in %,Veronica persica (VERPE) [10]; 320 g/ha,100%
same,Pre-emergence efficacy against VERPE in %,Veronica persica (VERPE) [10]; 1280 g/ha,100%
same,Pre-emergence efficacy against AMARE in %,[11]; 80 g/ha,100%
same,Pre-emergence efficacy against AMARE in %,[11]; 320 g/ha,100%
same,Pre-emergence efficacy against AMARE in %,[11]; 1280 g/ha,100%
same,Post-emergence efficacy against ABUTH in %,[12]; 80 g/ha,90%
same,Post-emergence efficacy against ABUTH in %,[12]; 320 g/ha,100%
same,Post-emergence efficacy against ABUTH in %,[12]; 1280 g/ha,100%
same,Post-emergence efficacy against DIGSA in %,[13],90%
same,Post-emergence efficacy against ECHCG in %,[14],100%
same,Post-emergence efficacy against KCHSC in %,Kochia scoparia (KCHSC) [15]; 80 g/ha,90%
same,Post-emergence efficacy against KCHSC in %,Kochia scoparia (KCHSC) [15]; 320 g/ha,100%
same,Post-emergence efficacy against KCHSC,Kochia scoparia (KCHSC) [15]; 1280 g/ha,100%
same,Post-emergence efficacy against POAAN,Poa annua (POAAN) [16]; 320 g/ha,90%
same,Post-emergence efficacy against POAAN,Poa annua (POAAN) [16]; 1280 g/ha,100%
same,Post-emergence efficacy against SETVI,Setaria viridis (SETVI) [17],90%
same,Post-emergence efficacy against STEME,Stellaria media (STEME) [18]; 80 g/ha,100%
same,Post-emergence efficacy against STEME,Stellaria media (STEME) [18]; 320 g/ha,100%
same,Post-emergence efficacy against STEME,Stellaria media (STEME) [18]; 1280 g/ha,100%
same,Post-emergence efficacy against VERPE,Veronica persica (VERPE) [19]; 80 g/ha,90%
same,Post-emergence efficacy against VERPE,Veronica persica (VERPE) [19]; 320 g/ha,90%
same,Post-emergence efficacy against VERPE,Veronica persica (VERPE) [19]; 1280 g/ha,100%
same,Post-emergence efficacy against AMARE,[20]; 80 g/ha,100%
same,Post-emergence efficacy against AMARE,[20]; 320 g/ha,100%
same,Post-emergence efficacy against AMARE,[20]; 1280 g/ha,100%
